Reference: doi:10.1101/2025.08.20.670845v1 (biorxiv, 2025)

Tests used:
Assay in all cases: G-Flamp2 cAMP biosensor fluorescence in HeLa cells expressing the receptor
Format in all cases: cell-based
[1] = target: T1, AgOctβ2R (AgOctβ2) (Anopheles gambiae, UniProt F5HKI1)
T1 sequence (F5HKI1 1-526): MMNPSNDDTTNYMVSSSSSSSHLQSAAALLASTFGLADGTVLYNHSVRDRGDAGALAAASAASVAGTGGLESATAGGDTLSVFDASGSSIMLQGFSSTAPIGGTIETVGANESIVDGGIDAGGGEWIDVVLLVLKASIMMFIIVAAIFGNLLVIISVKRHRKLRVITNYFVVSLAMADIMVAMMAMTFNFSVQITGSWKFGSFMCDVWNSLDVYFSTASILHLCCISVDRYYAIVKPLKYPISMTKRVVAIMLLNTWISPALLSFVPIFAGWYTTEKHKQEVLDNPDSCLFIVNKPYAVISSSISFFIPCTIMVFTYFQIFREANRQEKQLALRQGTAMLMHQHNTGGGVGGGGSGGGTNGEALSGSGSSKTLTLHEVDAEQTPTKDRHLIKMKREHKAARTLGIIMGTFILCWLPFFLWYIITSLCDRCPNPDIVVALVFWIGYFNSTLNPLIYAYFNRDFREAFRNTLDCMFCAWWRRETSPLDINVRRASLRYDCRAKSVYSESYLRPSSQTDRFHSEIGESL

[2] = target: T2, AgOctβ2R (AgOctβ2) (Anopheles gambiae, UniProt F5HKI1, N432C)
T2 sequence (F5HKI1 1-526 N432C): T1 sequence (F5HKI1 1-526)

[3] = target: T3, AmOctβ2 (Apis mellifera, UniProt A0A7M7GMY8)
T3 sequence (A0A7M7GMY8 1-438): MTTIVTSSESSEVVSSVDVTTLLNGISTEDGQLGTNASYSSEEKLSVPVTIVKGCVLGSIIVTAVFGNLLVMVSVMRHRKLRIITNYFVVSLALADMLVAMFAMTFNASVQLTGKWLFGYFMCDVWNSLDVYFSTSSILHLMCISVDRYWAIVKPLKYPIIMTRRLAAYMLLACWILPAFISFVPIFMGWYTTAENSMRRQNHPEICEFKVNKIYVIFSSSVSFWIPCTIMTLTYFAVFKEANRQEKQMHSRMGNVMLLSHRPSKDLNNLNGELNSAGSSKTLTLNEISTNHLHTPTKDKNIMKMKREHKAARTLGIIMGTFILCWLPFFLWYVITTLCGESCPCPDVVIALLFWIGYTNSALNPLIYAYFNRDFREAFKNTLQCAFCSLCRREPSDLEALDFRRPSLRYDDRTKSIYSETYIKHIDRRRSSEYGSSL

[4] = target: T4, VdOctβ2 (Varroa destructor, UniProt A0A7M7KEY3)
T4 sequence (A0A7M7KEY3 1-439): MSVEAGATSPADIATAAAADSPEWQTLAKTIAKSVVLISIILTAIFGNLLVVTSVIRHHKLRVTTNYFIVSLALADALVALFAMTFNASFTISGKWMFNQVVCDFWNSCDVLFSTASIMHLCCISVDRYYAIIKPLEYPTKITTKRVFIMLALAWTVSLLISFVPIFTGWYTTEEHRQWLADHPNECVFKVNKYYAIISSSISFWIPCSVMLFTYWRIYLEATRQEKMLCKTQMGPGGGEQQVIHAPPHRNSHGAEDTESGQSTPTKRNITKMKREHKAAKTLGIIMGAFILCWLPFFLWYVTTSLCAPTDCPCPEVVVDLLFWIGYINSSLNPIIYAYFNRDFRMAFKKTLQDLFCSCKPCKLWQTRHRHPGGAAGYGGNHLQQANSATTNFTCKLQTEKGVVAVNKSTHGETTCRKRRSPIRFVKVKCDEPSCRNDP

[5] = target: T5, AgOctβ2R (AgOctβ2) (Anopheles gambiae, UniProt F5HKI1, L290E)
T5 sequence (F5HKI1 1-526 L290E): T1 sequence (F5HKI1 1-526)

Row | Compound | EC50 [1] [nM] | EC50 [2] [nM] | EC50 [3] [nM] | EC50 [4] [nM] | EC50 [5] [nM]
1 | NCC(O)c1ccc(O)cc1 (stereo not drawn) [octopamine] | 14.7 | 57.3 | 45.6 | 47.1 | 
2 | Cc1ccc(/N=C/N(C)/C=N/c2ccc(C)cc2C)c(C)c1 [amitraz] | 10.8 | 118 | 12.1 | 1.9 | 85.4
